pEC50, pIC50: −log10 of the molar value. Where two headings read alike, the source gives them in different places. One block for each molecule: values may come before it.
What was measured:
Assay type in all cases: cell-based
[1] = test system: histone H3 hyperacetylation in HeLa cervical carcinoma cells; test: Cellular histone H3 hyperacetylation assay; details: Homo sapiens, 24 h, range stated for the listed group, read-out: Induction of histone H3 hyperacetylation EC50
From the text: To assess the cellular efficacy of a histone deacetylase inhibitor in vitro, an assay was set up in black clear-bottom 96-well plates and optimized for use on the Cellomics “ArrayScan II” platform for a quantitative calculation of histone acetylation. The protocol uses a polyclonal rabbit antibody, specifically binding to acetylated lysine 23 or, alternatively, acetylated lysine 9+14 of human histone H3 on fixed cells with an Alexa Fluor 488 labeled goat anti rabbit-IgG used for counterstaining (modified from Braunger et al. AACR annual conference 2003, Abstract 4556). 5×10^3 HeLa cervical carcinoma cells/well (ATCC CCL-2) in 200 μl Dulbecco's modified Eagle's medium (DMEM) containing 10% fetal calf serum are seeded at day 1 in Packard view plates and incubated for 24 h under standard cell culture conditions. On day 2, 1 μl test compound (200× final concentration) is added and incubation continued for further 24 h. On day 3, the culture medium is discarded and attached cells fixed for 15 min at room temperature by addition of 100 μl fixation buffer (3.7% v:v formaldehyde in phosphate buffered saline/PBS). After discarding the fixation buffer and one wash with blocking solution (1% BSA, 0.3% Tween 20 in PBS), cells are permeabilized at room temperature by addition of 100 μl/well permeabilization buffer (30.8 mM NaCl, 0.54 mM Na2HPO4, 0.31 mM KH2PO4, 0.1% v:v […]) for 15 min at room temperature. After discarding the permeabilization buffer and washing twice with 100 μl/well blocking solution at room temperature, the 1st antibody (anti-K23 histone H3 antibody, Cell Signaling No. 9674 or, alternatively, anti-K9+14 histone H3 antibody, Calbiochem No. 382158) in blocking solution (50 μl/well) is added. After incubation for 1 h at room temperature, the wells are washed twice at room temperature with 100 μl/well blocking solution before addition of the 2nd antibody (goat-anti-rabbit Alexa Fluor 488; MoBiTec No. A-11008) in blocking solution (50 μl/well). After further incubation for 1 h at room temperature, wells are washed twice with 100 μl/well blocking solution at room temperature. Finally, 100 μl/well PBS are added and image analysis performed on the Cellomics “ArrayScan II” platform. For EC50 determination, the percentage of positive cells showing nuclear fluorescence is determined and EC50 calculation done from concentration-effect curves by means of non-linear regression. For calibration, a positive (reference HDAC inhibitors like SAHA or NVP LBH-589) and a negative control were included.

[2] = test system: HeLa cervical carcinoma cells; test: Cellular cytotoxicity assay (Alamar Blue), HeLa; details: Homo sapiens, 72 h, range stated for the listed group
Method: (§1) The anti-proliferative activity of the histone deacetylase inhibitory compounds as described herein, was evaluated using the following cell lines: HeLa and HeLa—KB (cervical carcinoma), H460 (non small cell lung cancer), A549 (non-small cell lung cancer), MCF7 (breast carcinoma), MCF10A (normal, non tumorigenic breast epithelial), MDA-MB468 (breast carcinoma), MDA-MB435 (breast carcinoma), MDA-MB231 (breast carcinoma), SKBR-3 (breast carcinoma), SKOV-3 (ovarial carcinoma), A-2780 (ovarial carcinoma), RKO (colon carcinoma), HCT-15 (colon carcinoma), HCT-116 (colon carcinoma), PC3 (prostate carcinoma), BPH1 (benign prostate hyperplasia), AsPC1 (pancreatic carcinoma), Cal27 (tongue carcinoma), A-431 (vulva carcinoma), HeclA (endometrial carcinoma), Saos-2 (osteosarcoma), U87MG (glioblastoma), WM266-4 (melanoma), K562 (chronic myeloid carcinoma), EOL1 (acute hypereosinophilic myeloid leukemia), CCRF-CEM and CCRF-CEM VCR1000 (acute lymphoblastic leukemia sensitive and resistant towards Vincristine). For quantification of cellular proliferation/living cells the Alamar Blue (Resazurin) cell viability assay was applied (O'Brien et al. Eur J Biochem 267, 5421-5426, 2000). In this assay Resazurin is reduced to the fluorescent resorufin by cellular dehydrogenase activity, correlating with viable, proliferating cells. The examples were dissolved as 20 mM solutions in dimethylsulfoxide (DMSO) and subsequently diluted in semi-logarithmic steps. Cell lines were seeded at respective density into 96 well flat bottom plates in a volume of 200 μl per well. 24 hours after seeding 1 μl each of the compound dilutions were added into each well of the 96 well plate. Each compound dilution was tested as quadruplicates. Wells containing untreated control cells were filled with 200 μl DMEM medium containing 0.5% v:v DMSO. The cells were then incubated with the substances for 72 hours at 37° C. in a humidified atmosphere containing 5% carbon dioxide. To determine the viability of the cells, 20 μl of an Resazurin solution (Sigma; 90 mg/l) were added. After 4 hours incubation at 37° C. the fluorescence was measured at an extinction of 544 nm and an emission of 590 nm. For the calculation of the cell viability the emission value from untreated cells was set as 100% viability and the emission rates of treated cells were set in relation to the values of untreated cells. Viabilities were expressed as % values. The corresponding IC50 values of the compounds for cytotoxic activity are determined from the concentration-effect curves by means of non-linear regression.

[3] = test system: MDA-MB468 breast cancer cells; test: Breast cancer cell differentiation assay (Nile Red, flow cytometry); details: 24 h; for Neutral & phospholipids (%): differentiated cells; for Phospholipids (%): undifferentiated cells
Method: For quantification of MDA-MB468 breast cancer cell differentiation (described by Munster et al. Canc. Res. 61(23), pp 8492, 2001), 1× E6 cells were seeded in 10 cm cell culture dishes and, after cultivation for 24 h, treated with HDI for further 24 h. Finally, cells were collected by trypsination, washed twice with PBS and resuspended in 1 ml of staining solution ([…] Nile Red in PBS). After incubation for at least 5 min at room temperature, cells were analysed by flow cytometry on a FACS Calibur device (Ex 488 nm, Em. at 530 nm/FL-1 and >630 nm/FL-3). From respective histograms the percentage of cells with fluorescence at 650 nm (phospholipids) and 530 nm+650 nm (phospho- and neutral lipids) were calculated. For microscopic analysis, MDA-MB468 cells were cultivated on two-well chamber slides, treated with test compound for 24 h, fixed with 1.5 vol % glutaraldehyde/PBS and finally treated with staining solution. After washing with PBS, cells were analysed by fluorescence microscopy.
The percentage of differentiated cells with neutral and phospholipids as well as undifferentiated cells with phospholipids only are summarized in the table 5.

[4] = test system: broad selection of non-malignant cell lines and fully transformed malignant cancer cell lines; test: Anti-proliferative activity across cell line panel (Alamar Blue); details: mean over non-malignant and malignant cell lines
Method: as §1

[5] = test system: RKO colon carcinoma cells; test: Cell-cycle dependent cytotoxicity, RKO exop21 cell system; details: Homo sapiens, 72 h, range stated for the listed group
Method: For determination of cell-cycle dependent cytotoxicity, the RKO exop21 cell system was applied (Schmidt et al. Oncogene 19: 2423-2429, 2000). Briefly, RKO cells with/without p21^waf1 expression (2×10^4 cells/well induced, 6×10^3 cells/well not induced) were treated with the examples for 72 h and metabolic activity quantified as described before. The expression of p21^waf1 was induced by treatment with Pronasterone A, causing a complete proliferation arrest of RKO cells in the G1 and G2 phases of the cell division cycle.

[6] = test system: A549 cell line; test: Combination experiment with Trail in A549; details: example at about its IC50 combined with Trail
Method: A549 non-small cell lung cancer, MDA-MB468 breast cancer and […] colorectal cancer cell lines were pretreated with the examples for 4 h before adding the chemotherapeutic agents or Trail and further incubation for 72 h total. The IC50 values of these combinations were determined from concentration-effect curves and compared to IC50 values of cell treated with the anti-cancer agent only.

[7] = arrested RKO cells, p21waf1 expressed, read-out: RKO arrested (p21^waf1 expressed) IC50
[8] = proliferating RKO cells, read-out: RKO proliferating IC50

pEC50 [1]: 4.29 to 5.67
SMILES: Nc1ccccc1NC(=O)/C=C/c1ccn(S(=O)(=O)c2ccc(-c3ccccc3)cc2)c1 [Compound 7, (E)-N-(2-Amino-phenyl)-3-[1-(biphenyl-4-sulfonyl)-1H-pyrrol-3-yl]-acrylamide]
pIC50 [2]: 4.67 to 6.10

pEC50 [1]: 4.80 to 7.10
SMILES: O=C(/C=C/c1ccn(S(=O)(=O)c2ccc(-c3ccccn3)s2)c1)NO [Compound 24, (E)-N-Hydroxy-3-[1-(5-pyridin-2-yl-thiophene-2-sulfonyl)-1H-pyrrol-3-yl]-acrylamide]
Neutral & phospholipids (%) ([3]; 0.8 μM): 67.3% | Phospholipids (%) ([3]; 0.8 μM): 27.9% | pIC50 [4]: 6.24 | pIC50 [5, 7]: 4.82 to 6.35 | pIC50 [5, 8]: 5.29 to 6.82 | Effect of combination with Trail [6]: synergism is highly likely | pIC50 [2]: 5.30 to 7.15

The remaining lines, values behind:

SMILES: O=C(C=Cc1ccn(S(=O)(=O)Cc2ccccc2)c1)NO [Compound 2, N-Hydroxy-3-(1-phenylmethanesulfonyl-1H-pyrrol-3-yl)-acrylamide]
pEC50 [1]: 4.29 to 5.67 | pIC50 [2]: 4.67 to 6.10

SMILES: O=C(/C=C/c1ccn(S(=O)(=O)c2ccc(-c3ccccc3)cc2)c1)NO [Compound 3, (E)-3-[1-(Biphenyl-4-sulfonyl)-1H-pyrrol-3-yl]-N-hydroxy-acrylamide]
Neutral & phospholipids (%) ([3]; 0.6 μM): 34.6% | Phospholipids (%) ([3]; 0.6 μM): 62.6% | Neutral & phospholipids (%) ([3]; 1.2 μM): 51.2% | Phospholipids (%) ([3]; 1.2 μM): 45.7% | pIC50 [4]: 6.07 | pIC50 [5, 7]: 4.82 to 6.35 | pIC50 [5, 8]: 5.29 to 6.82 | Effect of combination with Trail [6]: synergism is highly likely | pIC50 [2]: 4.67 to 6.10

SMILES: CN(C)c1ccc(S(=O)(=O)n2ccc(/C=C/C(=O)NO)c2)cc1 [Compound 4, (E)-3-[1-(4-Dimethylamino-benzenesulfonyl)-1H-pyrrol-3-yl]-N-hydroxy-acrylamide]
pEC50 [1]: 4.29 to 5.67 | pIC50 [2]: 4.67 to 6.10

SMILES: CN(CCc1cc2ccccc2[nH]1)Cc1ccc(S(=O)(=O)n2ccc(/C=C/C(=O)NO)c2)cc1 [Compound 9, (E)-N-Hydroxy-3-(1-[4-(([2-(1H-indol-2-yl)-ethyl]-methyl-amino)-methyl)-benzenesulfonyl]-1H-pyrrol-3-yl)-acrylamide]
Neutral & phospholipids (%) ([3]; 3 μM): 71.2% | Phospholipids (%) ([3]; 3 μM): 25.3% | Neutral & phospholipids (%) ([3]; 6 μM): 64.6% | Phospholipids (%) ([3]; 6 μM): 27.9% | pIC50 [4]: 5.43 | pIC50 [5, 7]: 4.82 to 6.35 | pIC50 [5, 8]: 5.29 to 6.82 | Effect of combination with Trail [6]: synergism is highly likely | pIC50 [2]: 5.30 to 7.15

SMILES: CN(C)Cc1ccc(S(=O)(=O)n2ccc(/C=C/C(=O)NO)c2)cc1 [Compound 10, (E)-3-[1-(4-Dimethylaminomethyl-benzenesulfonyl)-1H-pyrrol-3-yl]-N-hydroxy-acrylamide]
Neutral & phospholipids (%) ([3]; 2 μM): 55.5% | Phospholipids (%) ([3]; 2 μM): 41.6% | Neutral & phospholipids (%) ([3]; 5 μM): 70.2% | Phospholipids (%) ([3]; 5 μM): 25.2% | pIC50 [4]: 5.34 | pIC50 [5, 7]: 4.82 to 6.35 | pIC50 [5, 8]: 5.29 to 6.82 | Effect of combination with Trail [6]: synergism is highly likely | pIC50 [2]: 5.30 to 7.15

From US8188138B2, “Sulphonylpyrrole hydrochloride salts as histone deacetylases inhibitors” (4SC AG, priority 2005, dated 2012)
